The experiment addresses T1, Full-length USP19 (Homo sapiens, UniProt O94966).
T1 construct: Full-length USP19 was purchased from Boston Biochem (E-576); purchased Boston Biochem E-576
T1 sequence (O94966 1-1318): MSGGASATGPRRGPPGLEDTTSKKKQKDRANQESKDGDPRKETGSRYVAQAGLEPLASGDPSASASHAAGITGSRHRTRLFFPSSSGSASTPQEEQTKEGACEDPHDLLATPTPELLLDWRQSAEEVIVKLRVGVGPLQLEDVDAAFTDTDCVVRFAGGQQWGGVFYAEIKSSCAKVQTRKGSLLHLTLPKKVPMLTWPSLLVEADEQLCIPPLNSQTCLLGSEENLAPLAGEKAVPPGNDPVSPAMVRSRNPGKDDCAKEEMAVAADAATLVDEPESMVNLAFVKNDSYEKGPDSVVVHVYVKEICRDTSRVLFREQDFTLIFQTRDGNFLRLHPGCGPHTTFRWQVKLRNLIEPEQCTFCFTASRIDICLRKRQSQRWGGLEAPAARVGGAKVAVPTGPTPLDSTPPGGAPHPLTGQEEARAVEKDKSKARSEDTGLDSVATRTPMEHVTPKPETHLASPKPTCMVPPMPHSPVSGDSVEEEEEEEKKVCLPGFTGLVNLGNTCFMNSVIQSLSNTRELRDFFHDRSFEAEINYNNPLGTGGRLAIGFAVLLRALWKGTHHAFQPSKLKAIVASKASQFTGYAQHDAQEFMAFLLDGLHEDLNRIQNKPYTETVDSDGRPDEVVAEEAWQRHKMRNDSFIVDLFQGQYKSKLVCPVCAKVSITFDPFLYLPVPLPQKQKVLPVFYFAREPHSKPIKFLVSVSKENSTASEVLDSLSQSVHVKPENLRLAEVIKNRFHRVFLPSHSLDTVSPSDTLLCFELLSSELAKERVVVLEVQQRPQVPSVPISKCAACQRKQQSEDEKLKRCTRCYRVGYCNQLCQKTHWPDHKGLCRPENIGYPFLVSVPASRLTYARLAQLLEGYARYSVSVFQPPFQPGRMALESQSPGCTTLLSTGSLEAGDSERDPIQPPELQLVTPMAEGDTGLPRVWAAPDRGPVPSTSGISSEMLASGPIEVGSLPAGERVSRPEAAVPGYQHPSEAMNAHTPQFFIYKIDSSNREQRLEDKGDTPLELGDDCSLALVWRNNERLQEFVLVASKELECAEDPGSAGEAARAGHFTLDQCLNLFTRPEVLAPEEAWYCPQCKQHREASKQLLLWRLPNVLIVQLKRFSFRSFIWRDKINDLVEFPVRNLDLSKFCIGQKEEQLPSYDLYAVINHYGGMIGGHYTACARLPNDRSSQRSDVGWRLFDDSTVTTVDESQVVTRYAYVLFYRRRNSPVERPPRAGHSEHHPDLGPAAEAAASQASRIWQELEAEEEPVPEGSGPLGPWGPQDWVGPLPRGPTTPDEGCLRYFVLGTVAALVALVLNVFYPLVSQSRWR
The experiment in a line: USP19 fluorescence polarisation (FP) assay, Ubiquitin-Lys-TAMRA substrate. It counts as biochemical. The conditions noted are these: average of at least two duplicate experiments. Summed up: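 Fluorescence polarisation (excitation 530 nm, parallel and perpendicular emission at 575 nm) was recorded every 15 min for 90 min after adding the ubiquitin-Lys-TAMRA isopeptide (500 nM as dispensed). Beforehand, the full-length enzyme (2.5 nM as dispensed) sat 30 min at RT with compound diluted from 200 μM to 2 μM in HEPES pH 7.4 buffer with 150 mM NaCl, 5 mM DTT, 0.05% BSA and 0.05% CHAPS. Values normalised to uninhibited wells gave IC50s by non-linear fitting, each the mean of two or more duplicate runs.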
In the case of `N[C@H]1C[C@@H](c2ccccc2)N(C(=O)N2CC[C@@H](Cn3cnc(-c4ccccc4)cc3=O)C3(CCCC3)C2)C1` [Example 70, 3-(((R)-7-((2S,4S)-4-Amino-2-phenylpyrrolidine-1-carbonyl)-7-azaspiro[4.5]decan-10-yl)methyl)-6-phenylpyrimidin-4(3H)-one], the IC50 was below 10 nM.
In the case of `Cc1cc(C)nc(CN[C@@H]2CCN(C(=O)N3CC[C@@H](Cn4cnc(-c5ccccc5)cc4=O)C4(CCCC4)C3)[C@H](c3ccccc3)C2)n1` [Example 194, 3-(((R)-7-((2S,4R)-4-(((4,6-Dimethylpyrimidin-2-yl)methyl)amino)-2-phenylpiperidine-1-carbonyl)-7-azaspiro[4.5]decan-10-yl)methyl)-6-phenylpyrimidin-4(3H)-one], the IC50 was below 10 nM.
With `CN[C@@H]1CCN(C(=O)N2CC[C@@H](Cn3cnc(-c4ccccc4OC)cc3=O)C3(CCCC3)C2)[C@H](c2ccc(F)c(F)c2)C1` [Example 138, 3-(((R)-7-((2S,4R)-2-(3,4-Difluorophenyl)-4-(methylamino)piperidine-1-carbonyl)-7-azaspiro[4.5]decan-10-yl)methyl)-6-(2-methoxyphenyl)pyrimidin-4(3H)-one] the figure was below 10 nM; with `O=C(N1CC[C@@H](Cn2ccc(-c3ccccc3)cc2=O)C2(CCCC2)C1)N1CC[C@@H](O)C[C@H]1c1ccccc1` [Example 44, 1-(((R)-7-((2S,4R)-4-Hydroxy-2-phenylpiperidine-1-carbonyl)-7-azaspiro[4.5]decan-10-yl)methyl)-4-phenylpyridin-2(1H)-one], 10 to 100 nM.
As for `CN[C@@H]1CCN(C(=O)N2CC[C@@H](CN3CCOCC3=O)C3(CCCC3)C2)[C@H](c2cc(F)ccc2F)C1` [Example 159, 4-(((R)-7-((2S,4R)-2-(2,5-Difluorophenyl)-4-(methylamino)piperidine-1-carbonyl)-7-azaspiro[4.5]decan-10-yl)methyl)morpholin-3-one], the figure is below 10 nM; as for `CN[C@@H]1CCN(C(=O)N2CC[C@@H](Cn3ccc(-c4ccccc4)cc3=O)C(C)(C)C2)[C@H](c2ccccc2)C1` [Example 72, 1-(((R)-3,3-Dimethyl-1-((2S,4R)-4-(methylamino)-2-phenylpiperidine-1-carbonyl)piperidin-4-yl)methyl)-4-phenylpyridin-2(1H)-one], below 10 nM; as for `Cc1ccccc1-c1cc(=O)n(C[C@@H]2CCN(C(=O)N3CC[C@@H](N)C[C@H]3c3ccccc3)CC23CCCC3)cn1` [Example 77, 3-(((R)-7-((2,4R)-4-Amino-2-phenylpiperidine-1-carbonyl)-7-azaspiro[4.5]decan-10-yl)methyl)-6-(o-tolyl)pyrimidin-4(3H)-one], below 10 nM.
With `O=C1OCCN1[C@@H]1CCN(C(=O)N2CC[C@@H](Cn3cnc(-c4ccccc4)cc3=O)C3(CCCC3)C2)[C@H](c2cccc(F)c2)C1` [Example 197, 3-((2S,4R)-2-(3-Fluorophenyl)-1-((R)-10-((6-oxo-4-phenylpyrimidin-1(6H)-yl)methyl)-7-azaspiro[4.5]decane-7-carbonyl)piperidin-4-yl)oxazolidin-2-one], the concentration for half-maximal inhibition (IC50) is 10 to 100 nM.
With `CN[C@@H]1CCN(C(=O)N2CC[C@@H](Cn3cnc(-c4ccccc4)cc3=O)C3(CCCC3)C2)[C@H](c2ccc(F)c(F)c2)C1` [Example 133, 3-(((R)-7-((2S,4R)-2-(3,4-Difluorophenyl)-4-(methylamino)piperidine-1-carbonyl)-7-azaspiro[4.5]decan-10-yl)methyl)-6-phenylpyrimidin-4(3H)-one] the figure was below 10 nM; with `CN[C@@H]1CCN(C(=O)N2CC[C@@H](Cn3cnc(-c4ccccc4C)cc3=O)C3(CCCC3)C2)[C@H](c2cccc(F)c2)C1` [Example 119, 3-(((R)-7-((2S,4R)-2-(3-Fluorophenyl)-4-(methylamino)piperidine-1-carbonyl)-7-azaspiro[4.5]decan-10-yl)methyl)-6-(0-tolyl)pyrimidin-4(3H)-one], below 10 nM.
In the case of `CN[C@@H]1CCN(C(=O)N2CC[C@@H](Cn3ccc(-c4ccccc4OC)cc3=O)C3(CCCC3)C2)[C@H](c2cc(F)ccc2F)C1` [Example 113, 1-(((R)-7-((2S,4R)-2-(2,5-Difluorophenyl)-4-(methylamino)piperidine-1-carbonyl)-7-azaspiro[4.5]decan-10-yl)methyl)-4-(2-methoxyphenyl)pyridin-2(1H)-one], the concentration for half-maximal inhibition (IC50) is below 10 nM.
For the compound `Cc1ccn(CC2CCN(C(=O)N3CC[C@@H](N)C[C@H]3c3ccccc3)CC23CCCC3)c(=O)c1` (stereo partly drawn) [Example 39, 1-((7-((2S,4R)-4-Amino-2-phenylpiperidine-1-carbonyl)-7-azaspiro[4.5]decan-10-yl)methyl)-4-methylpyridin-2(1H)-one], the IC50 is 10 to 100 nM.
With `N[C@H]1C[C@@H](c2ccccc2)N(C(=O)N2CC[C@@H](Cn3ccc(-c4ccccc4)cc3=O)C3(CCCC3)C2)C[C@H]1F` (racemic) [Example 85, 1-(((R)-7-((2S,4S,5R)-4-Amino-5-fluoro-2-phenylpiperidine-1-carbonyl)-7-azaspiro[4.5]decan-10-yl)methyl)-4-phenylpyridin-2(1H)-one and 1-(((R)-7-((2S,4S,5S)-4-Amino-5-fluoro-2-phenylpiperidine-1-carbonyl)-7-azaspiro[4.5]decan-10-yl)methyl)-4-phenylpyridin-2(1H)-one] the figure was below 10 nM; with `CC[C@@H]1C[C@H](N)CCN1C(=O)N1CC[C@@H](Cn2ccc(-c3ccccc3)cc2=O)C2(CCCC2)C1` [Example 68, 1-(((R)-7-((2R,4R)-4-Amino-2-ethylpiperidine-1-carbonyl)-7-azaspiro[4.5]decan-10-yl)methyl)-4-phenylpyridin-2(1H)-one], 10 to 100 nM.
As for `CN[C@@H]1CCN(C(=O)N2CCC(Cn3ccc(-c4ccccc4)cc3=O)CC2)[C@H](c2ccccc2)C1` [Example 47, 1-((1-((2S,4R)-4-(Methylamino)-2-phenylpiperidine-1-carbonyl)piperidin-4-yl)methyl)-4-phenylpyridin-2(1H)-one], the figure is below 10 nM.
`CO[C@@]1(Cn2ccc(-c3ccccc3)cc2=O)CCN(C(=O)N2CC[C@@H](N)C[C@H]2c2ccccc2)CC12CCCC2` [Example 73, 1-(((S)-7-((2S,4R)-4-Amino-2-phenylpiperidine-1-carbonyl)-10-methoxy-7-azaspiro[4.5]decan-10-yl)methyl)-4-phenylpyridin-2(1H)-one]: the IC50 is below 10 nM.
As for `CC1(C)CN(C(=O)N2CCNC[C@H]2c2ccccc2)CCC1Cn1ccc(-c2ccccc2)cc1=O` (stereo partly drawn) [Example 20, 1-((3,3-Dimethyl-1-((R)-2-phenylpiperazine-1-carbonyl)piperidin-4-yl)methyl)-4-phenylpyridin-2(1H)-one], the figure is 10 to 100 nM; as for `CN[C@@H]1CCN(C(=O)N2CC[C@@H](Cn3cnc(-c4ccccc4C)cc3=O)C3(CCCC3)C2)[C@H](c2cc(F)ccc2F)C1` [Example 114, 3-(((R)-7-((2S,4R)-2-(2,5-Difluorophenyl)-4-(methylamino)piperidine-1-carbonyl)-7-azaspiro[4.5]decan-10-yl)methyl)-6-(o-tolyl)pyrimidin-4(3H)-one], below 10 nM; as for `CN(C)[C@@H]1CCN(C(=O)N2CC[C@@H](Cn3ccc(-c4ccccc4)cc3=O)C3(CCCC3)C2)[C@H](c2ccccc2)C1` [Example 46, 1-(((R)-7-((2S,4R)-4-(Dimethylamino)-2-phenylpiperidine-1-carbonyl)-7-azaspiro[4.5]decan-10-yl)methyl)-4-phenylpyridin-2(1H)-one], 10 to 100 nM.
In the case of `COc1ccccc1-c1cc(=O)n(C[C@@H]2CCN(C(=O)N3CC[C@@H](N)C[C@H]3c3ccccc3)CC23CCCC3)cn1` [Example 92, 3-(((R)-7-((2S,4R)-4-Amino-2-phenylpiperidine-1-carbonyl)-7-azaspiro[4.5]decan-10-yl)methyl)-6-(2-methoxyphenyl)pyrimidin-4(3H)-one], the concentration for half-maximal inhibition (IC50) was below 10 nM.

One may read the IC50 as the concentration that gives 50% inhibition.

(Values after patent US20240327382A1 (ALMAC DISCOVERY LIMITED, priority 2021, published 2024).)
